According to patent publication US11919886B2, “4,9-dioxo-4,9-dihydronaphtho[2,3-B]furan-3-carboxamide derivatives and uses thereof for treating proliferative diseases and infectious diseases” (Academia Sinica, priority 2016, dated 2024):
Values after ≈ are worked out from the molar mass of the structure shown. Read-outs that look alike come from different tables or passages of the source.

Columns and labels:
Enterococcus faecium = test: MIC, broth micro dilution method; format: cell-based
[1] = test system: CL1-5 (human lung adenocarcinoma cells, EGFR wild type and resistant to gefitinib); test: SRB cytotoxicity assay, CL1-5; conditions: CL1-5, 72 h
[2] = test system: HS68 (human foreskin fibroblast cells, used as normal cells); test: SRB cytotoxicity assay, HS68 normal cells; conditions: Hs68, 72 h
[3] = test system: A549 (adenocarcinomic human alveolar basal epithelial cells); test: SRB cytotoxicity assay, A549; conditions: A549, 72 h
H1975 cells = test: Cell cycle analysis by propidium iodide flow cytometry; conditions: 72 h
MCM complex (MCM2-MCM7) = test: Immunoblotting of MCM complex protein expression in H1975 cell lysates; format: cell-based, human
Description: To evaluate the effects of Compound 1 on modulating the expression of different MCM protein components, immunoblotting of DMSO or compound 1-treated (at 140 nM) H1975 cell lysates was performed. Exemplary results are shown in Panels (A)-(C) of FIG. 3. H1975 cell were treated with DMSO and compound 1 (140 nM). Compound 1-treated H1975 cells were harvested at 24 hours, 48 hours, and 72 hours, and the protein expression levels of MCM complex were analyzed by immunoblotting. […] (Panel (A) of FIG. 3.).
To evaluate the effects of Compound 1 on triggering MCM2, MCM6, and MCM7 degradation through transcriptional or post-translational regulation, compound 1-treated H1975 cells were harvested at 48 hours with or without 10 μM MG132 treatment for 12 hours; and the protein expression levels of MCM2/6/7 were examined by immunoblotting. […] It was observed that MG132 proteasome inhibitor may reverse the compound 1 effects on MCM2/6/7 protein expression levels.

MCM2 = molecular target: T1, MCM2 (Homo sapiens, UniProt P49736); test: MCM2 ubiquitination (Myc-Ub transfection, MCM2 immunoprecipitation); format: cell-based; conditions: H1975 co-expressing Myc-Ub, 140 nM, 12 hours
T1 construct: The MCM2 proteins were pulled down by incubating the H1975 lysate with compound 1-conjugated magnetic beads; endogenous in cells; host or cells: H1975
Description: To determine whether Compound 1 triggers MCM2 degradation through promoting MCM2 ubiquitination, Myc-tagged ubiquitin (Myc-Ub) was transfected into H1975 cells treated with or without compound 1 and followed by MCM2 immunoprecipitation. The cells were transiently transfected with pcDNA3-Myc-Ub and treated with or without 140 nM of compound 1 combined with MG132. After 12 hours, the cells were harvested and MCM2 proteins were precipitated with specific anti-MCM2 antibodies. The ubiqiuitination pattern were detected by immunoblotting. IgG served as the antibody control in the immunoprecipitation experiment.

[4] = test system: Breast Cancer Cells (MCF); test: Cell viability by Cell-TiterGlo; format: cell-based; conditions: Homo sapiens, 48 h, two days, read-out: % of the activities in the presence of ~10 μM compound, Breast Cancer Cells (MCF)
Description: (§1) Compound 1 and its analogues shown in Table 6 below were tested for their activities on cancer cells and bacterial cells using assays described herein. H1975, MDA-MB231, and MCF7 cells were incubated in the presence of the compounds in cell growth medium containing 10% fetal bovine serum for two days in a mammalian cell culture incubatoe. Cell viability were monitored by using Cell-TiterGlo. Staphylococcus aureus and Escherichia coli were incubated in the presence of the compounds in Muller-Hinton broth for 16-24 hours in a 37° C. incubator. Bacterial growth was monitored by using Alamar Blue (Invitrogen).

[5] = test system: Breast Cancer Cells (MDA-MB231); test: Cell viability by Cell-TiterGlo; format: cell-based; conditions: Homo sapiens, MDA-MB-231, 48 h, two days, read-out: % of the activities in the presence of ~10 μM compound, Breast Cancer Cells (MDA-MB231)
Description: as §1

[6] = test system: Lung Cancer Cells (H1975); test: Cell viability by Cell-TiterGlo; format: cell-based; conditions: Homo sapiens, NCI-H1975, 48 h, two days, read-out: % of the activities in the presence of ~10 μM compound, Lung Cancer Cells (H1975)
Description: as §1

Shigella sonnei = test: MIC, broth micro dilution method; format: cell-based

T1 sequence (P49736 whole entry): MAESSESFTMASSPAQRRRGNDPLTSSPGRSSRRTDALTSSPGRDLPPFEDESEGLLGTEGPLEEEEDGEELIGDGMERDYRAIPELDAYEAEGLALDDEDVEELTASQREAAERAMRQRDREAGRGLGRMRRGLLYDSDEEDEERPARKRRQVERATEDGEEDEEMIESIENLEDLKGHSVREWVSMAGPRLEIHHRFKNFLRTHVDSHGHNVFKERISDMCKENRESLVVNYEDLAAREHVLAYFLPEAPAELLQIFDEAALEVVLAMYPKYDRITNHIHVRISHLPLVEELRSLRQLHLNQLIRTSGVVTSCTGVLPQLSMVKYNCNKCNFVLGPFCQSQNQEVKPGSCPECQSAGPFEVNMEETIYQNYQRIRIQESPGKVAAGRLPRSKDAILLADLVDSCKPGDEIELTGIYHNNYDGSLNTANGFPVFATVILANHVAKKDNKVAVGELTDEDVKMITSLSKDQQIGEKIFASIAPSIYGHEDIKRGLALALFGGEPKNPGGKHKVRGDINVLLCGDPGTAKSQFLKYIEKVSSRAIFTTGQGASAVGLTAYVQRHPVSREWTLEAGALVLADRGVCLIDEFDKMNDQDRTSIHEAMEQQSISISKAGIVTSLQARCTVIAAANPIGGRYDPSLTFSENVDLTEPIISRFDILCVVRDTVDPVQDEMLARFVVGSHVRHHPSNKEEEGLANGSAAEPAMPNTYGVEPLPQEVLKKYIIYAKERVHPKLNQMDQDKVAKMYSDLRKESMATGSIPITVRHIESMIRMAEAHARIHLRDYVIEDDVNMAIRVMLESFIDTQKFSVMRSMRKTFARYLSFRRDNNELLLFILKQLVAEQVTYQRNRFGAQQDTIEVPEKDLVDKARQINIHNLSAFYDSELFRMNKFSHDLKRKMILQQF

Work on Cc1oc2c(c1C(=O)NCCCn1ccnc1)C(=O)c1ccccc1C2=O [Compound 1, N-(3-(1H-Imidazol-1-yl)propyl)-2-methyl-4,9-dioxo-4,9-dihydronaphtho [2,3-b]furan-3-carboxamide] yielded an MIC (Enterococcus faecium; read-out: MIC (μg/ml) 100%, strain ATCC19434) of 16 µg/mL (≈ 44 µM), an MIC (Enterococcus faecium; strain ATCC19434, read-out: MIC (μg/ml) 50%) of 2 µg/mL (≈ 5.5 µM) and an IC50 [1] of 280 nM. For the same compound, the IC50 [2] was > 1000 nM, the IC50 [3] was 53 nM and the “Phase(%) G1” value (H1975 cells; H1975, 35 nM) was 70%. The “Phase(%) G2/M” value (H1975 cells; H1975, 35 nM) was 23%, the “Phase(%) S” value (H1975 cells; H1975, 35 nM) was 4% and the “Phase(%) subG1” value (H1975 cells; H1975, 35 nM) was 1%. The “Phase(%) G1” value (H1975 cells; H1975, 70 nM) was 58%, the “Phase(%) G2/M” value (H1975 cells; H1975, 70 nM) was 31% and the “Phase(%) S” value (H1975 cells; H1975, 70 nM) was 7%. The “Phase(%) subG1” value (H1975 cells; H1975, 70 nM) was 1%, the “Phase(%) G1” value (H1975 cells; H1975, 140 nM) was 39% and the “Phase(%) G2/M” value (H1975 cells; H1975, 140 nM) was 38%. The “Phase(%) S” value (H1975 cells; H1975, 140 nM) was 18%, the “Phase(%) subG1” value (H1975 cells; H1975, 140 nM) was 4% and the “expression of MCM3, MCM4, or MCM5” value (MCM complex (MCM2-MCM7); H1975, 140 nM, 24, 48, 72 hours) was “lower only at 72 hours”. The “expression levels of MCM2, MCM6, and MCM7” value (MCM complex (MCM2-MCM7); H1975, 140 nM, 24 hour and 72 hour) was “significantly decreased”, the “MCM protein levels and messenger RNA levels” value (MCM complex (MCM2-MCM7); H1975, 24 hours) was “substantial decrease in MCM protein levels without a change in their messenger RNA levels” and the “Ubiquitylated MCM2” value (MCM2) was “detected in treated cells”. It also gave a viability at 10 µM [4] of 6%, a viability at 10 µM [5] of 13.7% and a viability at 10 µM [6] of 4.2%. The MIC (Shigella sonnei; read-out: MIC (μg/ml) 100%, strain ATCC9290, gram negative) was > 32 µg/mL and the MIC (Shigella sonnei; strain ATCC9290, gram negative, read-out: MIC (μg/ml) 50%) was > 32 µg/mL.
